Key:
[1] = target: Adrenergic receptor beta (Homo sapiens, UniProt P08588+P07550+P13945); assay: Beta-adrenergic agonistic activity in guinea-pig atrium preincubated with phenoxybenzamine (12 uM) for 30 min; format: functional, tissue-based, Cavia porcellus, Cardiac atrium; conditions: target entry is the homologue from another species
[2] = target: T1, Adrenergic receptor beta (Rattus norvegicus, UniProt P18090+P10608+P26255); assay: Beta-adrenergic agonistic activity in rat proximal colon in presence of phentolamine (10 uM), desmethylimipramine (0.5 uM) and hydrocortisone (30 uM); format: functional, tissue-based
[3] = target: T1, Adrenergic receptor beta; assay: Beta-adrenergic agonistic activity in rat uterus preincubated with phenoxybenzamine (12 uM) for 30 min; format: functional, tissue-based
[4] = target: T1, Adrenergic receptor beta; assay: Beta-adrenergic agonistic activity in rat proximal colon; format: functional

EC50 [1] [nM] | IC50 [2] [nM] | IC50 [3] [nM] | IC50 [4] [nM] | Structure (SMILES)
> 30000 |  | 350 | 21 | CCOC(=O)CCc1ccc2c(c1)CC(NCC(O)c1cccc(Cl)c1)CC2.Cl (stereo not drawn)
> 30000 | 1.09 | 319 |  | CCOC(=O)CCc1ccc2c(c1)C[C@@H](NC[C@H](O)c1cccc(Cl)c1)CC2.Cl

Further lines, the compound ahead of its results:

Structure (SMILES) | EC50 [1] [nM] | IC50 [2] [nM] | IC50 [3] [nM] | IC50 [4] [nM]
CCOC(=O)CCc1ccc2c(c1)C[C@H](NC[C@H](O)c1cccc(Cl)c1)CC2.Cl | > 30000 | 0.9 | 480 | 
CCOC(=O)COc1ccc2c(c1)C[C@@H](NC[C@H](O)c1cccc(Cl)c1)CC2.Cl (mixture of isomers) [AMIBEGRON HYDROCHLORIDE] | > 30000 |  | 1200 | 47
CCOC(=O)c1ccc2c(c1)CC(NCC(O)c1cccc(Cl)c1)CC2.Cl (stereo not drawn) | > 30000 |  | 185 | 90
CCOC(=O)COc1ccc2c(c1)C[C@@H](NC[C@H](O)c1cccc(Cl)c1)CC2.Cl [AMIBEGRON HYDROCHLORIDE] | > 30000 | 3.5 | 499 | 

Source: ChEMBL document CHEMBL1127944, “Synthesis of the potent and selective atypical -adrenergic agonist SR 59062A” (Bioorg Med Chem Lett, 1994)
